Measurements reported in US20240199587A1, “HETEROCYCLIC COMPOUNDS” (Hoffmann-La Roche Inc., priority 2021, published 2024).

molecular target: T1, MAGL (Homo sapiens, UniProt Q99685); experiment: 2-AG assay (MAGL inhibitory activity, hydrolysis of 2-arachidonoylglycerol to arachidonic acid followed by mass spectrometry); type: biochemical; settings: 8 μM 2-arachidonoylglycerol, 15 min pre-incubation, 30 min incubation at RT, RapidFire MS readout
T1 sequence (Q99685 1-303): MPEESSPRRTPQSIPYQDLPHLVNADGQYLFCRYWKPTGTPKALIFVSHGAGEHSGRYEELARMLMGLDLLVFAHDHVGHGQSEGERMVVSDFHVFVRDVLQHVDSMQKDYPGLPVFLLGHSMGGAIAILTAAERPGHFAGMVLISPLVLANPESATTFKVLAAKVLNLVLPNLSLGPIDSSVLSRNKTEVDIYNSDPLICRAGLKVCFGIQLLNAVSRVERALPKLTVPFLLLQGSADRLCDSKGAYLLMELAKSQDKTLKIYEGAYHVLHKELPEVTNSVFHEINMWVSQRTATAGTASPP
How it was run: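 Arachidonic acid released from 8 μM 2-arachidonoylglycerol was quantified by online SPE triple-quadrupole MS (negative ESI, 303.1→259.1), normalised to d8-arachidonic acid internal standard. Reaction ran 30 min at RT after 15 min RT compound pre-incubation with […] MAGL in TRIS/EDTA/Tween-20 buffer, 2.5% DMSO.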

IC50 | SMILES
2.7 nM | O=C(N1CC(Oc2ccc(C(F)(F)F)cc2F)C1)N1CC2(CC(n3cnc(C4CC4)n3)C2)C1 [Example 96, (6-(3-cyclopropyl-1H-1,2,4-triazol-1-yl)-2-azaspiro[3.3]heptan-2-yl)(3-(2-fluoro-4-(trifluoromethyl)phenoxy)azetidin-1-yl)methanone]
3.24 nM | O=C(N1CC(c2ccc(N3CC[C@@H](C(F)(F)F)C3)nc2)C1)N1CC2(CC(n3cnc(C4(O)CC4)n3)C2)C1 [Example 373, [6-[3-(1-hydroxycyclopropyl)-1,2,4-triazol-1-yl]-2-azaspiro[3.3]heptan-2-yl]-[3-[6-[(3R)-3-(trifluoromethyl)pyrrolidin-1-yl]-3-pyridyl]azetidin-1-yl]methanone]
159 nM | Cn1ccc(OC2CC3(C2)CN(C(=O)N2CC4(CC(n5cnc(C6CC6)n5)C4)C2)C3)cc1=O [Example 66, 4-[[2-[6-(3-cyclopropyl-1,2,4-triazol-1-yl)-2-azaspiro[3.3]heptane-2-carbonyl]-2-azaspiro[3.3]heptan-6-yl]oxy]-1-methyl-pyridin-2-one]
8.3 nM | O=C(N1CC(C23CC(c4nnc(C5CC5)[nH]4)(C2)C3)C1)N1CC2(CC(n3cnc(C4CC4)n3)C2)C1 [Example 432, [6-(3-cyclopropyl-1,2,4-triazol-1-yl)-2-azaspiro[3.3]heptan-2-yl]-[3-[3-(5-cyclopropyl-4H-1,2,4-triazol-3-yl)-1-bicyclo[1.1.1]pentanyl]azetidin-1-yl]methanone]
34.3 nM | O=C(N1CC2(CC(n3cnc(C4CC4)n3)C2)C1)N1CC2(C1)CN(S(=O)(=O)CCc1ccc(F)cc1)C2 [Example 272, [6-(3-cyclopropyl-1,2,4-triazol-1-yl)-2-azaspiro[3.3]heptan-2-yl]-[2-[2-(4-fluorophenyl)ethylsulfonyl]-2,6-diazaspiro[3.3]heptan-6-yl]methanone]
45.3 nM | O=C(N1CC2(CC(n3cnc(C4CC4)n3)C2)C1)N1CC2(CN(Cc3ccc(C(F)(F)F)nn3)C2)C1 [Example 472, [6-(3-cyclopropyl-1,2,4-triazol-1-yl)-2-azaspiro[3.3]heptan-2-yl]-[6-[[6-(trifluoromethyl)pyridazin-3-yl]methyl]-2,6-diazaspiro[3.3]heptan-2-yl]methanone]
79.9 nM | Cc1ccc(OC2CN(C(=O)N3CC4(CC(n5cnc(C6CC6)n5)C4)C3)C2)c(Cl)n1 [Example 100, (3-((2-chloro-6-methylpyridin-3-yl)oxy)azetidin-1-yl)(6-(3-cyclopropyl-1H-1,2,4-triazol-1-yl)-2-azaspiro[3.3]heptan-2-yl)methanone]
400 nM | Cc1cnn(C2CC3(C2)CN(C(=O)c2ccc(-c4noc(C(C)(C)C)n4)cc2)C3)c1 [Example 146, [4-(5-tert-butyl-1,2,4-oxadiazol-3-yl)phenyl]−[6-(4-methylpyrazol-1-yl)-2-azaspiro[3.3]heptan-2-yl]methanone]
8.8 nM | O=C(N1CC2(CC(n3cnc(C4CC4)n3)C2)C1)N1CC2(C1)CN(S(=O)(=O)c1c(F)cc(F)cc1F)C2 [Example 242, [6-(3-cyclopropyl-1,2,4-triazol-1-yl)-2-azaspiro[3.3]heptan-2-yl]-[2-(2,4,6-trifluorophenyl)sulfonyl-2,6-diazaspiro[3.3]heptan-6-yl]methanone]
0.69 nM | O=C(N1CC(c2ccc(-c3n[nH]c(C4CCC4)n3)cc2)C1)N1CC2(CC(n3cnc(C4CC4)n3)C2)C1 [Example 471, [3-[4-(5-cyclobutyl-1H-1,2,4-triazol-3-yl)phenyl]azetidin-1-yl]-[6-(3-cyclopropyl-1,2,4-triazol-1-yl)-2-azaspiro[3.3]heptan-2-yl]methanone]
2960 nM | CP(C)(=O)c1ccc(COC2CN(C(=O)N3CC4(CC(n5cnc(C(F)(F)F)n5)C4)C3)C2)cc1 [Example 414, [3-[(4-dimethyl-phosphorylphenyl)methoxy]azetidin-1-yl]-[6-[3-(trifluoromethyl)-1,2,4-triazol-1-yl]-2-azaspiro[3.3]heptan-2-yl]methanone]
72.2 nM | N#Cc1cc(F)ccc1O[C@H]1C[C@@H]2CN(C(=O)N3CC4(CC(n5cnc(C6CC6)n5)C4)C3)C[C@@H]2C1 [Example 129, 5-fluoro-2-[[rac-(3aS,6aR)-2-[6-(3-cyclopropyl-1,2,4-triazol-1-yl)-2-azaspiro[3.3]heptane-2-carbonyl]-3,3a,4,5,6,6a-hexahydro-1H-cyclopenta[c]pyrrol-5-yl]oxy]benzonitrile]
0.3 nM | O=C(N1CC2(CC(Oc3cncc(C(F)(F)F)n3)C2)C1)N1CC2(CC(n3cnc(C4CC4)n3)C2)C1 [Example 51, (6-(3-cyclopropyl-1H-1,2,4-triazol-1-yl)-2-azaspiro[3.3]heptan-2-yl)(6-((6-(trifluoromethyl)pyrazin-2-yl)oxy)-2-azaspiro[3.3]heptan-2-yl)methanone]
27.2 nM | COC(=O)c1ccccc1S(=O)(=O)N1CC2(CN(C(=O)N3CC4(CC(n5cnc(C6CC6)n5)C4)C3)C2)C1 [Example 264, methyl 2-[[6-[6-(3-cyclopropyl-1,2,4-triazol-1-yl)-2-azaspiro[3.3]heptane-2-carbonyl]-2,6-diazaspiro[3.3]heptan-2-yl]sulfonyl]benzoate]
1.37 nM | O=C(N1CC2(CC(n3cnc(C4CC4)n3)C2)C1)N1CC2(CC(n3cnc(C(F)(F)F)n3)C2)C1 [Example 449, [6-(3-cyclopropyl-1,2,4-triazol-1-yl)-2-azaspiro[3.3]heptan-2-yl]-[6-[3-(trifluoromethyl)-1,2,4-triazol-1-yl]-2-azaspiro[3.3]heptan-2-yl]methanone]
441 nM | O=C(N1CC2(CC(n3cnc(C4CC4)n3)C2)C1)N1CCC(OCC2(C(F)(F)F)CC2)C2(CC2)C1 (centres unmarked) [Example 149, [6-(3-cyclopropyl-1,2,4-triazol-1-yl)-2-azaspiro13.31heptan-2-yl]−[8-[[1-(trifluoromethyl)cyclopropyl]methoxy]-5-azaspiro[2.5]octan-5-yl]methanone]
1490 nM | CC(C)(C)c1nnc(-c2ccc(C(=O)N3CC4(CC(n5cnc(Cl)n5)C4)C3)cc2)o1 [Example 168, [4-(5-tert-butyl-1,3,4-oxadiazol-2-yl)phenyl]-[6-(3-chloro-1,2,4-triazol-1-yl)-2-azaspiro[3.3]heptan-2-yl]methanone]
2 nM | O=C(N1CC(c2ccc(OC(F)(F)F)c(Cl)c2)C1)N1CC2(CC(n3cnc(C4CC4)c3)C2)C1 [Example 69]
245 nM | O=C(N1CC(Oc2ccc(C(F)(F)F)c(C3CC3)c2)C1)N1CC2(CC(c3ccc(C(F)(F)F)nc3)C2)C1 [Example 528]
1.3 nM | O=C(N1CC(Oc2ccc(C3CC3)cn2)C1)N1CC2(CC(n3cnc(C4CC4)n3)C2)C1 [Example 210, [3-[(5-cyclopropyl-2-pyridyl)oxy]azetidin-1-yl]-[6-(3-cyclopropyl-1,2,4-triazol-1-yl)-2-azaspiro[3.3]heptan-2-yl]methanone]
2.5 nM | O=C(N1CC2(CC(n3cnc(C4CC4)n3)C2)C1)N1CC2(CN(Cc3cc(F)cc(F)c3)C2)C1 [Example 221, [6-(3-cyclopropyl-1,2,4-triazol-1-yl)-2-azaspiro[3.3]heptan-2-yl]-[6-[(3,5-difluorophenyl)methyl]-2,6-diazaspiro[3.3]heptan-2-yl]methanone]
2.34 nM | NC(=O)[C@H]1CC(F)(F)CCN1c1ccc(C2CN(C(=O)N3CC4(CC(n5cnc(C6CC6)n5)C4)C3)C2)cc1 (single isomer, unassigned) [Example 494]
3 nM | O=C(N1CC2(CC(n3cnc(C4CC4)n3)C2)C1)N1CC2(C1)CN(S(=O)(=O)C1CCCCC1)C2 [Example 224, (2-cyclohexylsulfonyl-2,6-diazaspiro[3.3]heptan-6-yl)-[6-(3-cyclopropyl-1,2,4-triazol-1-yl)-2-azaspiro[3.3]heptan-2-yl]methanone]
6.8 nM | N#Cc1ccccc1S(=O)(=O)N1CC2(CN(C(=O)N3CC4(CC(n5cnc(C6CC6)n5)C4)C3)C2)C1 [Example 240]
1.83 nM | N#Cc1cc(CC2CC3(C2)CN(C(=O)N2CC4(CC(n5cnc(C6(O)CC6)n5)C4)C2)C3)ccc1C(F)(F)F [Example 365, 5-[[2-[6-[3-(1-hydroxycyclopropyl)-1,2,4-triazol-1-yl]-2-azaspiro[3.3]heptane-2-carbonyl]-2-azaspiro[3.3]heptan-6-yl]methyl]-2-(trifluoromethyl) benzonitrile]
61.7 nM | O=C(N1CC(c2noc(C3(C(F)(F)F)CC3)n2)C1)N1CC2(CC(n3cnc(C4CC4)n3)C2)C1 [Example 140, [6-(3-cyclopropyl-1,2,4-triazol-1-yl)-2-azaspiro[3.3]heptan-2-yl]-[3-[5-[1-(trifluoromethyl)cyclo-propyl]-1,2,4-oxadiazol-3-yl]azetidin-1-yl]methanone]
21.7 nM | CC(C)(C)c1nc(-c2ccc(C(=O)N3CC4(CC(n5cnc(C6CC6)c5)C4)C3)cc2)no1 [Example 64, (4-(5-(tert-butyl)-1,2,4-oxadiazol-3-yl)phenyl)(6-(4-cyclopropyl-1H-imidazol-1-yl)-2-azaspiro[3.3]heptan-2-yl)methanone]
108 nM | CC1(COc2ncc(C(=O)N3CC4(CC(n5cnc(C6CC6)c5)C4)C3)cc2F)CC1 [Example 30]
6.3 nM | O=C(N1C[C@H]2CC(Oc3ccc(F)cc3Cl)C[C@H]2C1)N1CC2(CC(n3cnc(C4CC4)c3)C2)C1 (mixture of isomers) [Example 91, [6-(4-cyclopropylimidazol-1-yl)-2-azaspiro[3.3]heptan-2-yl]-[rac-(3aR,6aS)-5-(2-chloro-4-fluoro-phenoxy)-3,3a,4,5,6,6a-hexahydro-1H-cyclopenta[c]pyrrol-2-yl]methanone]
